# Laboratory results as given in patent publication US20160319277A1, “METHODS OF IMPROVED PROTEIN PRODUCTION USING MIRNAs AND SIRNAs” (THE JOHNS HOPKINS UNIVERSITY, priority 2015, published 2016).
# Tested on: HEK-CMV-Luc2-Hygro cells
# Test: High-throughput genome-wide siRNA screen and validation screen for luciferase expression
# Assay type: cell-based, human
# Details: Table 4; primary screen, 72 h, negative control = 100%
# Outline: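 HEK cells with CMV-driven luciferase were reverse-transfected with 0.8 pmol siRNA per well (3 per gene) via RNAiMax and grown 72 h at 37 °C. Duplicate wells read for luciferase (ONE-Glo) and viability (CellTiter-Glo). Values given as % of plate negative-control median with MAD-based z-scores; hits with ≥2 siRNAs at z>3 retested using 3 new siRNAs.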
Substance,Viable cell density (%),per cell luciferase yield (%)
156 (GAUUAUCCUUGUACUUUGATT; chemistry not given here; listed as Homo sapiens) [compound 156],101.904%,141.842%
157 (GAACAGCUGGGAACCUUCATT; chemistry not given here; listed as Homo sapiens) [compound 157],60.645%,254.007%
158 (CUUCGACAGUACUUCCGGATT; chemistry not given here; listed as Homo sapiens) [compound 158],104.020%,161.613%
159 (GGAGUUCUUUGAUGAGAAATT; chemistry not given here; listed as Homo sapiens) [compound 159],96.357%,157.243%
160 (GGACCAAGCCCUAAAGGAATT; chemistry not given here; listed as Homo sapiens) [compound 160],68.989%,220.902%
161 (GCAGUGGACAUAGAAGAGATT; chemistry not given here; listed as Homo sapiens) [compound 161],110.815%,140.658%
162 (CGAUAUGCUUUUCUACGUUTT; chemistry not given here; listed as Homo sapiens) [compound 162],76.131%,235.013%
163 (CCAGCGAUACAACUCCUAUTT; chemistry not given here; listed as Homo sapiens) [compound 163],83.636%,176.821%
164 (GCAGGCACAUGGUUCCUCUTT; chemistry not given here; listed as Homo sapiens) [compound 164],83.512%,259.478%
165 (AGGUCAAUGUGACUUUCCATT; chemistry not given here; listed as Homo sapiens) [compound 165],105.029%,161.785%
166 (CCAAGUCCAAUGCACCUGUTT; chemistry not given here; listed as Homo sapiens) [compound 166],76.798%,186.195%
167 (CCUGGACAGUUUGAAGCAATT; chemistry not given here; listed as Homo sapiens) [compound 167],88.009%,174.946%
168 (GCUUCCUCUUGGACCUCAATT; chemistry not given here; listed as Homo sapiens) [compound 168],78.156%,185.175%
169 (GCGGAAAAGGUAUCCCUCATT; chemistry not given here; listed as Homo sapiens) [compound 169],80.173%,184.608%
170 (CCAACAAGGAAGACGAAAATT; chemistry not given here; listed as Homo sapiens) [compound 170],267.320%,284.062%
171 (CCCUGUUCAUUAUAAGUCUTT; chemistry not given here; listed as Homo sapiens) [compound 171],279.253%,272.683%
172 (GGAUAUUGGAGGCUAGUCATT; chemistry not given here; listed as Homo sapiens) [compound 172],289.677%,157.868%

Substance,Viable cell density (%),per cell luciferase yield (%)
173 (GACUAUUGAUACCAAAACATT; chemistry not given here; listed as Homo sapiens) [compound 173],82.689%,209.398%
174 (GCAAUGCUUGCAAAACUCATT; chemistry not given here; listed as Homo sapiens) [compound 174],90.976%,189.252%
175 (CAUUGGUGUUGACAAUCCATT; chemistry not given here; listed as Homo sapiens) [compound 175],85.046%,189.850%
176 (GUUGCAAACUUAUCGAGGATT; chemistry not given here; listed as Homo sapiens) [compound 176],79.093%,186.786%
177 (CUCUUAUGGUAACCAAUGATT; chemistry not given here; listed as Homo sapiens) [compound 177],91.558%,160.246%
178 (AAAUGCAACCCAAAAAGUATT; chemistry not given here; listed as Homo sapiens) [compound 178],76.280%,200.322%
179 (GUACCUGCGGGAUUACUCATT; chemistry not given here; listed as Homo sapiens) [compound 179],90.987%,160.687%
180 (CCACCCUACUAUGUACUGUTT; chemistry not given here; listed as Homo sapiens) [compound 180],93.181%,185.763%
181 (GCUAAGUCUUUUCCACAGUTT; chemistry not given here; listed as Homo sapiens) [compound 181],94.537%,155.385%
182 (CAGUUACUUUCAAAACUCUTT; chemistry not given here; listed as Homo sapiens) [compound 182],91.714%,202.960%
183 (CAACAGAUCAGAGAACAAATT; chemistry not given here; listed as Homo sapiens) [compound 183],92.429%,156.418%
184 (GCCUGAAUCUUGUCCCAAATT; chemistry not given here; listed as Homo sapiens) [compound 184],82.390%,228.483%
185 (GAAGAAGACUCUGUACUCATT; chemistry not given here; listed as Homo sapiens) [compound 185],66.511%,215.853%
186 (CGAAACUUGUCAACGGGAATT; chemistry not given here; listed as Homo sapiens) [compound 186],104.553%,179.207%
187 (AGAAAGCUUUGGGCAAAUATT; chemistry not given here; listed as Homo sapiens) [compound 187],75.570%,200.070%
188 (GGAAGAACGUCUUGCACAATT; chemistry not given here; listed as Homo sapiens) [compound 188],85.471%,183.071%

# Same assay, conditions: Table 6; polyamine pathway gene siRNAs
Substance,Luciferase activity (%),Per cell luciferase yield (%),Viable cell number (%)
156 (GAUUAUCCUUGUACUUUGATT; chemistry not given here; listed as Homo sapiens) [compound 156],144.5%,141.8%,101.9%
